Reference: patent publication US9981944B2, “GDF-8 inhibitors” (Rigel Pharmaceuticals, Inc., priority 2015, dated 2018)

Tests used:
HIS-TGFβR1 T204D = HIS-TGFβR1 T204D (Homo sapiens (Human), UniProt P36897, T204D); test: HTRF probe displacement assay, HIS-TGFβR1 T204D; type: binding; details: 1 nM HIS-TGFβR1 T204D, 1 hour at room temperature, read-out: TGFBR1T204D IC50
Method: (§1) Compounds were dissolved at 10 mM in dimethylsulfoxide (DMSO) and evaluated at eleven concentrations. IC50 values were derived by non-linear regression analysis.

HIS-TGFβR2 WT = HIS-TGFβR2 WT (Homo sapiens (Human), UniProt P37173); test: HTRF probe displacement assay, HIS-TGFβR2 WT; type: binding; details: 1 nM HIS-TGFβR2 WT, 1 hour at room temperature, read-out: TGFBR2WT IC50
Chain of HIS-TGFβR2 WT (P37173 23-567): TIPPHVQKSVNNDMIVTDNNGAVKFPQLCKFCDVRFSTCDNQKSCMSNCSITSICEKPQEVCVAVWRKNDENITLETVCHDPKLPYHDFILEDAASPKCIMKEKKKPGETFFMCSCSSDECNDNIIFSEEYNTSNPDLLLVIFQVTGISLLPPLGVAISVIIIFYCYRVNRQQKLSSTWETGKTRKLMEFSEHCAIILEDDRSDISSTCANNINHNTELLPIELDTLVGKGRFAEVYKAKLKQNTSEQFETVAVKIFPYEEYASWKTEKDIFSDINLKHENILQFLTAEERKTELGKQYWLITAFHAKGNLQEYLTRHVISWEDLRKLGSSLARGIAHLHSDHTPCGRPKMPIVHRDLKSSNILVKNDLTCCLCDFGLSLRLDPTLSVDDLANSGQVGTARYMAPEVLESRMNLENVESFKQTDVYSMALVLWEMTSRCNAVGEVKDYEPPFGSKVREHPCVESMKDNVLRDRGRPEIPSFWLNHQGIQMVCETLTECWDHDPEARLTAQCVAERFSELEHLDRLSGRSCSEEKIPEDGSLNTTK
Method: as §1

Chain of HIS-TGFβR1 T204D (P36897 34-503 T204D): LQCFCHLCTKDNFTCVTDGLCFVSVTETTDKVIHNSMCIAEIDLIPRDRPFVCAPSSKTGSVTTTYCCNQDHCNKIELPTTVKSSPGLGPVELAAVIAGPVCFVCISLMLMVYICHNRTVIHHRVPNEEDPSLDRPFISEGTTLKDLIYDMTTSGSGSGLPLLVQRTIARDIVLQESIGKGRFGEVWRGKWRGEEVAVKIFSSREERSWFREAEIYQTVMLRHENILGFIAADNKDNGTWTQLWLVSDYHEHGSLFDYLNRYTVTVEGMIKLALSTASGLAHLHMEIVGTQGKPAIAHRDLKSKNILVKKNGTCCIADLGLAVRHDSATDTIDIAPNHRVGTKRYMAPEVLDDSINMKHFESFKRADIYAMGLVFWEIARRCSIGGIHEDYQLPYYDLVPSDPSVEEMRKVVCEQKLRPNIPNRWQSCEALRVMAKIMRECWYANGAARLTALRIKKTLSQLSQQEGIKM

| Structure (SMILES) | IC50 (HIS-TGFβR1 T204D) | IC50 (HIS-TGFβR2 WT) |
| --- | --- | --- |
| Cc1cccc(-c2nccc(C(F)F)c2-c2ccc3ncc(C#N)n3c2)n1 [Compound 93, 6-(4-(difluoromethyl)-6′-methyl-[2,2′-bipyridin]-3-yl)imidazo[1,2-a]pyridine-3-carbonitrile] | 15000 nM | > 15000 nM |
| Cc1cccc(-c2nccc(C(F)F)c2-c2ccc3ncc(C(N)=O)n3c2)n1 [Compound 94, 6-(4-(difluoromethyl)-6′-methyl-[2,2′-bipyridin]-3-yl)imidazo[1,2-a]pyridine-3-carboxamide] | 15000 nM | > 15000 nM |
| CC(=O)Nc1ccc(-c2ccc3ncc(C(N)=O)n3c2)c(-c2cccc(C)n2)n1 [Compound 95, 6-(6-acetamido-6′-methyl-[2,2′-bipyridin]-3-yl)imidazo[1,2-a]pyridine-3-carboxamide] | 353 nM | > 15000 nM |
| CC(=O)Nc1cnc(-c2cccc(C)n2)c(-c2ccc3ncc(C#N)n3c2)c1 [Compound 96, N-(3-(3-cyanoimidazo[1,2-a]pyridin-6-yl)-6′-methyl-[2,2′-bipyridin]-5-yl)acetamide] | 43 nM | > 15000 nM |
| CC(=O)Nc1ccnc(-c2cccc(C)n2)c1-c1ccc2ncc(C#N)n2c1 [Compound 100, N-(3-(3-cyanoimidazo[1,2-a]pyridin-6-yl)-6′-methyl-[2,2′-bipyridin]-4-yl)acetamide] | 11100 nM | > 15000 nM |
| CC(=O)Nc1ccnc(-c2cccc(C)n2)c1-c1ccc2ncc(C(N)=O)n2c1 [Compound 102, 6-(4-acetamido-6′-methyl-[2,2′-bipyridin]-3-yl)imidazo[1,2-a]pyridine-3-carboxamide] | 716 nM | > 15000 nM |
| Nc1ncnc2ccc(-c3cccnc3-c3ccc(F)cn3)nc12 [Compound 104, 6-(5′-fluoro-[2,2′-bipyridin]-3-yl)pyrido[3,2-d]pyrimidin-4-amine] | 42 nM | > 15000 nM |
| CC(C)c1cccc(-c2ncccc2-c2ccc3ncnc(N)c3c2)n1 [Compound 108, 6-(6′-isopropyl-[2,2′-bipyridin]-3-yl)quinazolin-4-amine] | 172 nM | > 15000 nM |
| FC(F)c1cccc(-c2ncccc2-c2ccc3[nH]nc(C(F)F)c3c2)n1 [Compound 118, 3-(difluoromethyl)-5-(6′-(difluoromethyl)-[2,2′-bipyridin]-3-yl)-1H-indazole] | 427 nM | > 15000 nM |
| Cc1cccc(-c2ncccc2-c2ccn3ncc(C#N)c3n2)n1 [Compound 119, 5-(6′-methyl-[2,2′-bipyridin]-3-yl)pyrazolo[1,5-a]pyrimidine-3-carbonitrile] | 59 nM | > 15000 nM |
| N#Cc1cnn2ccc(-c3cccnc3-c3cccc(C(F)(F)F)n3)nc12 [Compound 121, 5-(6′-(trifluoromethyl)-[2,2′-bipyridin]-3-yl)pyrazolo[1,5-a]pyrimidine-3-carbonitrile] | 854 nM | > 15000 nM |
| Cc1nc(-c2ncccc2-c2ccn3ncc(C#N)c3n2)ccc1F [Compound 122, 5-(5′-fluoro-6′-methyl-[2,2′-bipyridin]-3-yl)pyrazolo[1,5-a]pyrimidine-3-carbonitrile] | 242 nM | > 15000 nM |
| CCOC(=O)c1cnn2ccc(-c3cccnc3-c3cccc(C(F)(F)F)n3)nc12 [Compound 123, ethyl 5-(6′-(trifluoromethyl)-[2,2′-bipyridin]-3-yl)pyrazolo[1,5-a]pyrimidine-3-carboxylate] | 46 nM | > 15000 nM |
| O=C(O)c1cnn2ccc(-c3cccnc3-c3cccc(C(F)(F)F)n3)nc12 [Compound 124, 5-(6′-(trifluoromethyl)-[2,2′-bipyridin]-3-yl)pyrazolo[1,5-a]pyrimidine-3-carboxylic acid] | 137 nM | > 15000 nM |
| CNC(=O)c1cnn2ccc(-c3cccnc3-c3cccc(C(F)(F)F)n3)nc12 [Compound 125, N-methyl-5-(6′-(trifluoromethyl)-[2,2′-bipyridin]-3-yl)pyrazolo[1,5-a]pyrimidine-3-carboxamide] | 339 nM | > 15000 nM |
| O=C(NC1CC1)c1cnn2ccc(-c3cccnc3-c3cccc(C(F)(F)F)n3)nc12 [Compound 126, N-cyclopropyl-5-(6′-(trifluoromethyl)-[2,2′-bipyridin]-3-yl)pyrazolo[1,5-a]pyrimidine-3-carboxamide] | 94 nM | > 15000 nM |
| CNC(=O)c1cnn2ccc(-c3cccnc3-c3cccc(C)n3)nc12 [Compound 127, N-methyl-5-(6′-methyl-[2,2′-bipyridin]-3-yl)pyrazolo[1,5-a]pyrimidine-3-carboxamide] | 128 nM | > 15000 nM |
| Cc1cccc(-c2ncccc2-c2ccn3ncc(C(=O)NC4CC4)c3n2)n1 [Compound 128, N-cyclopropyl-5-(6′-methyl-[2,2′-bipyridin]-3-yl)pyrazolo[1,5-a]pyrimidine-3-carboxamide] | 33 nM | > 15000 nM |
| Cc1cccc(-c2ncccc2-c2ccn3ncc(C(=O)NC4COC4)c3n2)n1 [Compound 129, 5-(6′-methyl-[2,2′-bipyridin]-3-yl)-N-(oxetan-3-yl)pyrazolo[1,5-a]pyrimidine-3-carboxamide] | 29 nM | > 15000 nM |
| Cc1nc(-c2ncccc2-c2ccn3ncc(C(=O)O)c3n2)ccc1F [Compound 131, 5-(5′-fluoro-6′-methyl-[2,2′-bipyridin]-3-yl)pyrazolo[1,5-a]pyrimidine-3-carboxylic acid] | 211 nM | > 15000 nM |
| Cc1nc(-c2ncccc2-c2ccn3ncc(C(=O)NC4CC4)c3n2)ccc1F [Compound 132, N-cyclopropyl-5-(5′-fluoro-6′-methyl-[2,2′-bipyridin]-3-yl)pyrazolo[1,5-a]pyrimidine-3-carboxamide] | 36 nM | > 15000 nM |
| O=C(O)c1cnn2ccc(-c3cccnc3-c3cccc(C(F)F)n3)nc12 [Compound 135, 5-(6′-(difluoromethyl)-[2,2′-bipyridin]-3-yl)pyrazolo[1,5-a]pyrimidine-3-carboxylic acid] | 107 nM | > 15000 nM |

The next molecules have a lower IC50 (HIS-TGFβR1 T204D) than those just listed; values first:

| IC50 (HIS-TGFβR1 T204D) | IC50 (HIS-TGFβR2 WT) | Structure (SMILES) |
| --- | --- | --- |
| 28 nM | > 15000 nM | CCOC(=O)c1cnn2ccc(-c3cccnc3-c3cccc(C(F)F)n3)nc12 [Compound 134, ethyl 5-(6′-(difluoromethyl)-[2,2′-bipyridin]-3-yl)pyrazolo[1,5-a]pyrimidine-3-carboxylate] |
| 24 nM | > 15000 nM | Cc1nc(-c2ncccc2-c2ccn3ncc(C(=O)NC4COC4)c3n2)ccc1F [Compound 133, 5-(5′-fluoro-6′-methyl-[2,2′-bipyridin]-3-yl)-N-(oxetan-3-yl)pyrazolo[1,5-a]pyrimidine-3-carboxamide] |
| 16 nM | > 15000 nM | FC(F)(F)c1cccc(-c2ncccc2-c2ccc3nccnc3c2)n1 [Compound 114, 6-(6′-(trifluoromethyl)-[2,2′-bipyridin]-3-yl)quinoxaline] |
| 14 nM | > 15000 nM | Fc1ccc(-c2ncccc2-c2ccc3[nH]ncc3c2)nc1 [Compound 116, 5-(5′-fluoro-[2,2′-bipyridin]-3-yl)-1H-indazole] |
| 14 nM | > 15000 nM | CCOC(=O)c1cnn2ccc(-c3cccnc3-c3ccc(F)c(C)n3)nc12 [Compound 130, ethyl 5-(5′-fluoro-6′-methyl-[2,2′-bipyridin]-3-yl)pyrazolo[1,5-a]pyrimidine-3-carboxylate] |
| 12 nM | > 15000 nM | Cc1nc(-c2ncccc2-c2ccc3nccnc3c2)ccc1F [Compound 112, 6-(5′-fluoro-6′-methyl-[2,2′-bipyridin]-3-yl)quinoxaline] |
| 9 nM | > 15000 nM | CCc1cccc(-c2ncccc2-c2ccc3ncnc(N)c3c2)n1 [Compound 107, 6-(6′-ethyl-[2,2′-bipyridin]-3-yl)quinazolin-4-amine] |
| 9 nM | > 15000 nM | Cc1cccc(-c2ncccc2-c2ccc3nccnc3c2)n1 [Compound 113, 6-(6′-methyl-[2,2′-bipyridin]-3-yl)quinoxaline] |
| 5 nM | > 15000 nM | Cc1cccc(-c2nccc(N)c2-c2ccc3ncc(C(N)=O)n3c2)n1 [Compound 101, 6-(4-amino-6′-methyl-[2,2′-bipyridin]-3-yl)imidazo[1,2-a]pyridine-3-carboxamide] |
| 4 nM | > 15000 nM | Cc1nc(-c2ncccc2-c2ccc3ncnc(N)c3n2)ccc1F [Compound 103, 6-(5′-fluoro-6′-methyl-[2,2′-bipyridin]-3-yl)pyrido[3,2-d]pyrimidin-4-amine] |
| 4 nM | > 15000 nM | Nc1ncnc2ccc(-c3cccnc3-c3cccc(C4CC4)n3)nc12 [Compound 106, 6-(6′-cyclopropyl-[2,2′-bipyridin]-3-yl)pyrido[3,2-d]pyrimidin-4-amine] |
| 3 nM | > 15000 nM | Nc1ncnc2ccc(-c3cccnc3-c3cccc(C(F)F)n3)nc12 [Compound 105, 6-(6′-(difluoromethyl)-[2,2′-bipyridin]-3-yl)pyrido[3,2-d]pyrimidin-4-amine] |
| 3 nM | > 15000 nM | FC(F)c1cccc(-c2ncccc2-c2ccc3[nH]ncc3c2)n1 [Compound 115, 5-(6′-(difluoromethyl)-[2,2′-bipyridin]-3-yl)-1H-indazole] |
| 2 nM | > 15000 nM | Nc1ncnc2ccc(-c3cccnc3-c3cccc(C(F)F)n3)cc12 [Compound 109, 6-(6′-(difluoromethyl)-[2,2′-bipyridin]-3-yl)quinazolin-4-amine] |
| 2 nM | > 15000 nM | Cc1nc(-c2ncccc2-c2ccc3ncnc(N)c3c2)ccc1F [Compound 110] |
| 2 nM | > 15000 nM | Nc1ncnc2ccc(-c3cccnc3-c3cccc(C4CC4)n3)cc12 [Compound 111] |
| 2 nM | > 15000 nM | Cc1nc(-c2ncccc2-c2ccc3[nH]ncc3c2)ccc1F [Compound 117, 5-(5′-fluoro-6′-methyl-[2,2′-bipyridin]-3-yl)-1H-indazole] |
